Reference: PubChem BioAssay (NCI)
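96-well plates; 48 h exposure; 5 concentrations. Endpoints by linear interpolation between flanking doses. Not reached: highest tested concentration assigned. Here, GI50 denotes the concentration required for 50% inhibition of growth. At the TGI there is no net growth.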

Tested on: OVCAR-5 ovarian
Assay: DTP human tumour cell line panel, 48 h

Point of comparison: CC1=CCC[C@H]2[C@](C)(CC3=CC(=O)C4SCCSC4C3=O)[C@@H](C)CC[C@]12C (some centres not stated), TGI 37.5 µM. Against it:
- O=CN(O)CC(=O)O — higher, > 100 µM
- CCOC(=O)c1c(NC(=S)Nc2ccc(C)cc2)sc2c1CCN(C)C2 — higher, > 100 µM
- c1ccc([P+](Cc2csnn2)(c2ccccc2)c2ccccc2)cc1 — higher, > 100 µM
- c1ccc(-c2ccc(N=NN3CCCC3)cc2)cc1 — higher, > 100 µM
- NC(=S)N=Nc1c(O)cc(Nc2ccc(Cl)cc2Cl)c2ccccc12 — higher, > 100 µM
- CCC1(CC)C(=O)NC(=S)N=C1N — higher, > 100 µM
- CCCC[C@@H]1CCN2C[C@@H](O)[C@@H](O)[C@H]2[C@@H]1O — higher, > 100 µM
- O=C(NN1C(=O)CSC1c1ccc(Cl)c(Cl)c1)c1ccncc1 (configuration not stated) — higher, > 100 µM
- CNc1ccc2c(c1)Cc1ccccc1-2 — higher, > 100 µM
- CCOC(=O)c1csc(NC(=O)CCCC#N)n1 — higher, > 100 µM
- O=c1cc(-c2ccccc2F)[nH]c2cc3c(cc12)OCO3 — higher, > 100 µM
- CCOC(=O)C(C)NC(=O)N(C)C12CC3CC(CC(C3)C1)C2 (configuration not stated) — higher, > 500 µM
- COC(=O)c1sc2ncc3c(c2c1N)CC(C)CC3 (configuration not stated) — higher, > 100 µM
- CCc1cc(=O)n(/C(C)=C/c2ccccc2)n1C — higher, > 100 µM
- COC(=O)C1=C(C(=O)OC)C2(C)CCC(=O)C1O2 (configuration not stated) — not separable, > 10 µM
- N/C(CSCCSC/C(N)=N/O)=N\O — higher, > 100 µM

Tested on: U251 CNS
Assay: DTP human tumour cell line panel, 48 h

Point of comparison: C(=N/Nc1ccc(-c2nc3ccccc3[nH]2)cc1)/c1c(-c2ccccc2)[nH]c2ccccc12, TGI 8.69 µM. Against it:
- CC(O)(C(=O)N(O)c1ccc(Cl)cc1)c1ccc(Cl)cc1 (configuration not stated) — 7.4-fold higher, 64.4 µM
- CCOP(=O)(OCC)c1cc(-c2ccccc2)ccc1N — higher, > 100 µM
- CC1(C)[C@@H]2C[C@H]1c1cnc(-c3ccccn3)cc1[C@H]2C(O)[C@@H]1c2cc(-c3ccccn3)ncc2[C@H]2C[C@@H]1C2(C)C (some centres not stated) — within 1.5-fold, 7.45 µM
- CC1(C)OC(CCO)CN1C(=O)OCc1ccccc1 (configuration not stated) — higher, > 100 µM
- CCOC(=O)C1=C(C)NC(=O)N([N+](=O)[O-])C1c1ccccc1C(F)(F)F (configuration not stated) — higher, > 100 µM
- O=c1c(Cc2ccccc2)c(-c2ccccc2)[nH]n1C1=NCCN1 — higher, > 100 µM
- Brc1ccc2c(c1)-c1nc3c(cc1CC2)CCc1ccc(Br)cc1-3 — higher, > 100 µM
- OC(c1ccco1)C(F)(F)c1nc2ccccc2o1 (configuration not stated) — higher, > 100 µM
- CN1c2ccccc2C(=O)NC12CCN(CC1COc3ccccc3O1)CC2 (configuration not stated) — higher, > 100 µM
- CCOC(=O)C(NC(=O)c1ccc(N=NN(C)C)cc1)C(C)C (configuration not stated) — higher, > 100 µM
- COc1cc(CCCOC2OC(COC3OCC(O)C(O)C3O)C(O)C(O)C2O)cc2cc(-c3ccc4c(c3)OCO4)oc12 (configuration not stated) — higher, > 175 µM
- CCOC(=O)c1ccc(C(=O)/C(C(=O)OC(C)(C)C)=C2\CCCN2C)n1C — higher, > 100 µM
- O=CN(O)CC(=O)O — higher, > 100 µM
- c1ccc([P+](Cc2csnn2)(c2ccccc2)c2ccccc2)cc1 — higher, > 100 µM
- c1ccc(-c2ccc(N=NN3CCCC3)cc2)cc1 — higher, > 100 µM
- NNC(=O)c1cccc2c1Oc1ccccc1S2 — higher, > 100 µM
- NC(=S)N=Nc1c(O)cc(Nc2ccc(Cl)cc2Cl)c2ccccc12 — 4.4-fold higher, 38.2 µM
- CCC1(CC)C(=O)NC(=S)N=C1N — higher, > 100 µM
- CCCC[C@@H]1CCN2C[C@@H](O)[C@@H](O)[C@H]2[C@@H]1O — higher, > 100 µM
- O=C(NN1C(=O)CSC1c1ccc(Cl)c(Cl)c1)c1ccncc1 (configuration not stated) — higher, > 100 µM
- CNc1ccc2c(c1)Cc1ccccc1-2 — higher, > 100 µM
- CCOC(=O)c1csc(NC(=O)CCCC#N)n1 — higher, > 100 µM
- O=c1cc(-c2ccccc2F)[nH]c2cc3c(cc12)OCO3 — 2.6-fold higher, 22.5 µM
- CCOC(=O)C(C)NC(=O)N(C)C12CC3CC(CC(C3)C1)C2 (configuration not stated) — higher, > 500 µM
- O=c1c2cc3c(=O)n(CCc4ccccc4CO)c(=O)c3cc2c(=O)n1CCc1ccccc1CO — higher, > 100 µM
- COC(=O)c1sc2ncc3c(c2c1N)CC(C)CC3 (configuration not stated) — higher, > 100 µM
- CCc1cc(=O)n(/C(C)=C/c2ccccc2)n1C — higher, > 100 µM
- CC1=CCC[C@H]2[C@](C)(CC3=CC(=O)C4SCCSC4C3=O)[C@@H](C)CC[C@]12C (some centres not stated) — 4-fold higher, 34.5 µM
- COC(=O)C1=C(C(=O)OC)C2(C)CCC(=O)C1O2 (configuration not stated) — higher, > 10 µM
- N/C(CSCCSC/C(N)=N/O)=N\O — higher, > 100 µM

Tested on: NCI-H522 lung
Assay: DTP human tumour cell line panel, 48 h

Point of comparison: CNc1ccc2c(c1)Cc1ccccc1-2, TGI 50.8 µM. Against it:
- CC(O)(C(=O)N(O)c1ccc(Cl)cc1)c1ccc(Cl)cc1 (configuration not stated) — within 1.5-fold, 46.1 µM
- CCOP(=O)(OCC)c1cc(-c2ccccc2)ccc1N — higher, > 100 µM
- CC1(C)[C@@H]2C[C@H]1c1cnc(-c3ccccn3)cc1[C@H]2C(O)[C@@H]1c2cc(-c3ccccn3)ncc2[C@H]2C[C@@H]1C2(C)C (some centres not stated) — 17-fold lower, 3.06 µM
- CC1(C)OC(CCO)CN1C(=O)OCc1ccccc1 (configuration not stated) — higher, > 100 µM
- O=c1c(Cc2ccccc2)c(-c2ccccc2)[nH]n1C1=NCCN1 — higher, > 100 µM
- Brc1ccc2c(c1)-c1nc3c(cc1CC2)CCc1ccc(Br)cc1-3 — higher, > 100 µM
- CCOC(=O)C(NC(=O)c1ccc(N=NN(C)C)cc1)C(C)C (configuration not stated) — higher, > 100 µM
- COc1cc(CCCOC2OC(COC3OCC(O)C(O)C3O)C(O)C(O)C2O)cc2cc(-c3ccc4c(c3)OCO4)oc12 (configuration not stated) — higher, > 175 µM
- O=C1c2c(c3c4ccc(Br)cc4oc3c3[nH]c4ccccc4c23)C(=O)N1O — higher, > 100 µM
- C(=N/Nc1ccc(-c2nc3ccccc3[nH]2)cc1)/c1c(-c2ccccc2)[nH]c2ccccc12 — 25-fold lower, 2.02 µM
- c1ccc([P+](Cc2csnn2)(c2ccccc2)c2ccccc2)cc1 — higher, > 100 µM
- c1ccc(-c2ccc(N=NN3CCCC3)cc2)cc1 — higher, > 100 µM
- CCC1(CC)C(=O)NC(=S)N=C1N — higher, > 100 µM
- CCCC[C@@H]1CCN2C[C@@H](O)[C@@H](O)[C@H]2[C@@H]1O — higher, > 100 µM
- O=C(NN1C(=O)CSC1c1ccc(Cl)c(Cl)c1)c1ccncc1 (configuration not stated) — higher, > 100 µM
- O=c1cc(-c2ccccc2F)[nH]c2cc3c(cc12)OCO3 — 210-fold lower, 0.238 µM
- CCOC(=O)C(C)NC(=O)N(C)C12CC3CC(CC(C3)C1)C2 (configuration not stated) — higher, > 451 µM
- O=c1c2cc3c(=O)n(CCc4ccccc4CO)c(=O)c3cc2c(=O)n1CCc1ccccc1CO — higher, > 100 µM
- COC(=O)c1sc2ncc3c(c2c1N)CC(C)CC3 (configuration not stated) — higher, > 100 µM
- N/C(CSCCSC/C(N)=N/O)=N\O — higher, > 100 µM

With O=C1c2c(c3c4ccc(Br)cc4oc3c3[nH]c4ccccc4c23)C(=O)N1O the GI50 was 1.07 µM.

Tested on: DU-145 prostate
Assay: DTP human tumour cell line panel, 48 h

Point of comparison: CC1(C)[C@@H]2C[C@H]1c1cnc(-c3ccccn3)cc1[C@H]2C(O)[C@@H]1c2cc(-c3ccccn3)ncc2[C@H]2C[C@@H]1C2(C)C (some centres not stated), TGI 3.47 µM. Against it:
- CC(O)(C(=O)N(O)c1ccc(Cl)cc1)c1ccc(Cl)cc1 (configuration not stated) — higher, > 100 µM
- CCOP(=O)(OCC)c1cc(-c2ccccc2)ccc1N — higher, > 100 µM
- CC1(C)OC(CCO)CN1C(=O)OCc1ccccc1 (configuration not stated) — higher, > 100 µM
- COc1cc2c(cc1OCCCOc1cc3c(cc1OC)C(=O)N1CCC[C@H]1CN3)N=C[C@@H]1CCCN1C2=O — higher, > 37.7 µM
- CCOC(=O)C1=C(C)NC(=O)N([N+](=O)[O-])C1c1ccccc1C(F)(F)F (configuration not stated) — higher, > 100 µM
- OC(c1ccco1)C(F)(F)c1nc2ccccc2o1 (configuration not stated) — higher, > 100 µM
